# In patent US12414960B2, “Analogues of oleuropein and oleacein and uses thereof” (Attica Sciences Ltd., priority 2020, dated 2025):
# Legend:
# in vivo = conditions: female, NOD SCID (NOD.CB17-Prkdc^scid/J), mouse, ip
# Excerpt: The guidelines of the NCI DTP (National Cancer Institute, Developmental Therapeutics Program, NIH, USA) for acute toxicity testing (DOI: 10.1021/acs.biomac.8b00959) were followed to determine Maximum Tolerated Dose (MTD) of GS27.
# For the MTD studies, NOD.CB 17-Prkdc^scid/J mice (also known as NOD SCID mice) were used. All animals for in vivo experiments were kept under specific pathogen-free (SPF) conditions in Type II Long cages, at the experimental unit of our department (Department of Pharmacology, EL42-BIO_Exp03, protocol license 5542/22806-30/11/2015) in a climate-regulated environment (21±1° C.; 50-55% relative humidity) under a 12 h/12 h (lights on at 7:00 AM) light/dark cycle and allowed ad libitum food and water. Female and male mice, 6-8 weeks old, were used in the studies described here. GS27 compound was administered to 15 female mice at two different doses. GS at either 100 or 50 mg/kg was administered in a single dose via i.p. injection in pre-weighed mice. One group of five mice received the carrier and served as controls. […] Mice were also weighed twice weekly for two weeks.
# PANC-1 cancer cells = test: Cell Titer-Glo cell viability assay, PANC-1; assay type: cell-based, human; conditions: 5 μM, 24 hours; compared with SB204990 and BMS303141
# Excerpt: The CellTiter-Glo® Luminescent Cell Viability Assay (Promega Corporation; Madison, WI) is a homogeneous method of determining the number of viable cells in culture based on quantitation of the ATP present, an indicator of metabolically active cells. The homogeneous assay procedure involves adding the single reagent (CellTiter-Glo® Reagent) directly to cells cultured in serum-supplemented medium. The homogeneous “add-mix-measure” format results in cell lysis and generation of a luminescent signal proportional to the amount of ATP present. The amount of ATP is directly proportional to the number of cells present in culture.
# Cancer cells (3,000 cells/well) were harvested in a 96-well plate. Then, the cancer cells were treated with GS compounds and incubated for 24 hours. The MT Cell Viability Substrate, NanoLuc® Enzyme and cell culture medium was equilibrated to 37° C. The 2× RealTime-Glo™ reagent was prepared by diluting the MT Cell Viability Substrate and NanoLuc® Enzyme in 37° C. cell culture medium to a 2× concentration for each reagent. […] The cells were kept for ˜20 minutes in the cell culture incubator and then luminescence was measured by using a plate-reading luminometer. […]
compound,measurement,setting,value
"C/C=C(/C=O)[C@@H](CC=O)CC(=O)SCCc1ccccc1 [GS27, S-phenethyl (3S,4E)-4-formyl-3-(2-oxoethyl)hex-4-enethioate]",MTD at 2 weeks,in vivo,> 200 mg/kg
same,dose well tolerated for two weeks,in vivo; 2 weeks,up to 100 mg/kg
same,suppression of PANC-1 cancer cell growth,PANC-1 cancer cells,best effect
